Source: US8431579B2, “Capped pyrazinoylguanidine sodium channel blockers” (Parion Sciences, Inc., priority 2003, dated 2013)

biological target: T1, airway epithelial sodium currents (epithelial Na+ channel, ENaC) (Canis lupus familiaris, UniProt A0A8I3MKE6+A0A8I3Q679+Q95165); test: In vitro measure of sodium channel blocking activity (short circuit current, airway epithelial monolayers in Ussing chambers); type: cell-based, human, dog, sheep or rodent; details: lumenal drug inhibition of ISC in airway epithelial monolayers, value ± spread, n in same cell
T1 sequence (A0A8I3Q679 1-649): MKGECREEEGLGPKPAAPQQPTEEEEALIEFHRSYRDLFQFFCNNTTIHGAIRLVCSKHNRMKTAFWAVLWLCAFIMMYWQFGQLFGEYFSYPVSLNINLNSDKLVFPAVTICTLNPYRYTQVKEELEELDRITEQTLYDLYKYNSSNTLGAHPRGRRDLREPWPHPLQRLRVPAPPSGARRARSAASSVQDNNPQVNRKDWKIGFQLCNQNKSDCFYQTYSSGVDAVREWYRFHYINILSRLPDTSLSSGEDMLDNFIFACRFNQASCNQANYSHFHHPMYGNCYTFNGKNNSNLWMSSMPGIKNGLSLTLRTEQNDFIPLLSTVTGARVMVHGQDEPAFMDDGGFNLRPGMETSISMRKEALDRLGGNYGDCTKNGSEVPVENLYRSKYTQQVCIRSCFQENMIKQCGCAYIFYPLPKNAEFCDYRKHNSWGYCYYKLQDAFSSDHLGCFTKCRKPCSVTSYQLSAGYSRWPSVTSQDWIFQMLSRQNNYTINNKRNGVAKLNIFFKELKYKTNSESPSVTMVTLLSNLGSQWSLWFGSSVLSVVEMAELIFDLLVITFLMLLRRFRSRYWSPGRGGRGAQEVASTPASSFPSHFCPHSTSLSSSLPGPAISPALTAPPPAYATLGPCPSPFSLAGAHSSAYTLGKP
T1 sequence (Q95165 1-641): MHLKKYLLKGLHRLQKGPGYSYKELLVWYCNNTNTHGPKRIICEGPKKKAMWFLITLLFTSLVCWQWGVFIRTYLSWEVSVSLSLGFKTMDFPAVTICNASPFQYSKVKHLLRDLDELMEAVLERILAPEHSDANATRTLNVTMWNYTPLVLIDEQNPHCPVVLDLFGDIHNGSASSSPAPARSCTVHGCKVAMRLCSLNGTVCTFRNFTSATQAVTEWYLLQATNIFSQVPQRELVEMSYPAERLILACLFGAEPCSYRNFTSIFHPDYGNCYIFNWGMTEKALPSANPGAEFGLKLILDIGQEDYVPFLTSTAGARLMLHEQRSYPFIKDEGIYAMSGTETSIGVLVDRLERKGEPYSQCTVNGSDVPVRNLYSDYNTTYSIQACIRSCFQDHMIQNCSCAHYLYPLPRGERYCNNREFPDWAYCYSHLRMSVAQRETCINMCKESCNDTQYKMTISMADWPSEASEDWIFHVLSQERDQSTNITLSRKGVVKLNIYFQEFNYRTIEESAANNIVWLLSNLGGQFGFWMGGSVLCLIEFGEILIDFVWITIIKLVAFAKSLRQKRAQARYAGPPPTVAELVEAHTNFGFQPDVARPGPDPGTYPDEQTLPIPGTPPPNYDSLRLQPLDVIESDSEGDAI
T1 sequence (A0A8I3MKE6 1-646): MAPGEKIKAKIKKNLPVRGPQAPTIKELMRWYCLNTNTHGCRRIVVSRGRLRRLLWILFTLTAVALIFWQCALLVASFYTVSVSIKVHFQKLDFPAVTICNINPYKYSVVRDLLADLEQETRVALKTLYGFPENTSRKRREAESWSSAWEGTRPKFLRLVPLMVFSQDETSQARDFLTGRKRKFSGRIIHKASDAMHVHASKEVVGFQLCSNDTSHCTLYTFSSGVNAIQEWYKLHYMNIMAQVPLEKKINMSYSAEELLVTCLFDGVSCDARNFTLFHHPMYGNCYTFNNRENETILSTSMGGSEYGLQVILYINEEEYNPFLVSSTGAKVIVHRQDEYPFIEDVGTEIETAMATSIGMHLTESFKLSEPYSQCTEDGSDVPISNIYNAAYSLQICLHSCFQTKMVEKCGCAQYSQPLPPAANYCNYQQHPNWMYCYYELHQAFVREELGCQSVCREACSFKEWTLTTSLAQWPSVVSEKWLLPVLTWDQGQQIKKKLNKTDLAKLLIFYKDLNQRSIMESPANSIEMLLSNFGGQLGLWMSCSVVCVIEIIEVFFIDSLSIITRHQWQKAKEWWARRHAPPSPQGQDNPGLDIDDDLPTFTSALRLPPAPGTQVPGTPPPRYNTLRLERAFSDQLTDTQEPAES
Procedure: In Vitro Measure of Sodium Channel Blocking Activity and Reversibility
One assay used to assess mechanism of action and/or potency of the compounds of the present invention involves the determination of lumenal drug inhibition of airway epithelial sodium currents measured under short circuit current (ISC) using airway epithelial monolayers mounted in Ussing chambers. Cells obtained from freshly excised human, dog, sheep or rodent airways are seeded onto porous 0.4 micron Snapwell™ Inserts (CoStar), cultured at air-liquid interface (ALI) conditions in hormonally defined media, and assayed for sodium transport activity (ISC) while bathed in Krebs Bicarbonate Ringer (KBR) in Using chambers. All test drug additions are to the lumenal bath with half-log dose addition protocols (from 1×10^−11 M to 3×10^−5M), and the cumulative change in ISC (inhibition) recorded. All drugs are prepared in dimethyl sulfoxide as stock solutions at a concentration of 1×10^−2 M and stored at −20° C. Eight preparations are typically run in parallel; two preparations per run incorporate amiloride and/or benzamil as positive controls. After the maximal concentration (5×10^−5 M) is administered, the lumenal bath is exchanged three times with fresh drug-free KBR solution, and the resultant ISC measured after each wash for approximately 5 minutes in duration. Reversibility is defined as the percent return to the baseline value for sodium current after the third wash. All data from the voltage clamps are collected via a computer interface and analyzed off-line.
Dose-effect relationships for all compounds are considered and analyzed by the Prism 3.0 program. IC50 values, maximal effective concentrations, and reversibility are calculated and compared to amiloride and benzamil as positive controls.

Question: Which EC50 does the source give for `N=C(NCCCCc1ccc(OCC(O)COCC(O)CO)cc1)NC(=O)c1nc(Cl)c(N)nc1N` (centres unmarked) [compound 15143] here?
Answer: 7 ± 3 nM

Question: Which EC50 does the source give for `N#CCOc1ccc(CCCCNC(=N)NC(=O)c2nc(Cl)c(N)nc2N)cc1` [compound 16208] here?
Answer: 11 ± 4 nM

Question: Which EC50 does the source give for `CN(C)C(=O)COc1ccc(CCCCNC(=N)NC(=O)c2nc(Cl)c(N)nc2N)cc1` [compound 16313] here?
Answer: 15 ± 4 nM

Question: For `N=C(NCCCCc1ccc(OCC(=O)NCC(N)=O)cc1)NC(=O)c1nc(Cl)c(N)nc1N` [compound 16314], which EC50 is on record?
Answer: 13 ± 2 nM

Question: Which EC50 does the source give for `N=C(NCCCCc1ccc(OCC(=O)Nc2ncc[nH]2)cc1)NC(=O)c1nc(Cl)c(N)nc1N` [compound 16437] here?
Answer: 13 ± 7 nM

Question: For `N=C(NCCCCc1ccc(OCC(=O)Nc2ccccc2)cc1)NC(=O)c1nc(Cl)c(N)nc1N` [compound 17482], which EC50 is on record?
Answer: 16 ± 4 nM

Question: With `CN(C)C(=S)Oc1ccc(CCCCNC(=N)NC(=O)c2nc(Cl)c(N)nc2N)cc1` [compound 17846] as the compound, how does the EC50 read?
Answer: 11 ± 6 nM

Question: Which EC50 does the source give for `N=C(NCCCCc1ccc(OCCCc2nnn[nH]2)cc1)NC(=O)c1nc(Cl)c(N)nc1N` [compound 17926] here?
Answer: 25 ± 9 nM

Question: With `CC(C)[C@H](NS(=O)(=O)c1ccc(CCCCNC(=N)NC(=O)c2nc(Cl)c(N)nc2N)cc1)C(N)=O` [compound 19008] as the compound, how does the EC50 read?
Answer: 9 ± 1 nM

Question: Which EC50 does the source give for `N=C(NCCCCc1ccc(OCCCc2ncc[nH]2)cc1)NC(=O)c1nc(Cl)c(N)nc1N` [compound 23022] here?
Answer: 12 ± 3 nM

tested on: not given; test: not given; details: not given

Question: Which melting point does the source give for `N=C(NCCCCc1ccc(OCC(=O)N(CCO)CCO)cc1)NC(=O)c1nc(Cl)c(N)nc1N` here?
Answer: 114 to 121.16 °C
